Results: PubChem BioAssay (NCI)
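Where inhibition never reached the appropriate level, the endpoint shown equals the highest concentration tested. Otherwise, values were interpolated linearly from a five-concentration, 48-hour dose response in 96-well plates. TGI is the concentration that stops growth completely.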

Experiments:
Experiment in all cases: inhibition of tumour cell growth, NCI panel, 48 h
OVCAR-5 ovarian = system: OVCAR-5 ovarian
HOP-62 NSCLC = system: HOP-62 NSCLC
A549 NSCLC = system: A549 NSCLC
SNB-75 CNS = system: SNB-75 CNS
SF-268 CNS = system: SF-268 CNS
CAKI-1 renal = system: CAKI-1 renal
RXF 393 renal = system: RXF 393 renal
M14 melanoma = system: M14 melanoma
UACC-62 melanoma = system: UACC-62 melanoma
SNB-19 CNS = system: SNB-19 CNS
SR leukemia = system: SR leukemia
HS 578T breast = system: HS 578T breast
OVCAR-4 ovarian = system: OVCAR-4 ovarian
SK-MEL-2 melanoma = system: SK-MEL-2 melanoma
MALME-3M melanoma = system: MALME-3M melanoma
LOX IMVI melanoma = system: LOX IMVI melanoma
KM12 colon = system: KM12 colon
DU-145 prostate = system: DU-145 prostate
EKVX NSCLC = system: EKVX NSCLC
HCT-116 colon = system: HCT-116 colon
MDA-MB-231 breast = system: MDA-MB-231 breast
UACC-257 melanoma = system: UACC-257 melanoma
NCI/ADR-RES ovarian = system: NCI/ADR-RES ovarian
MOLT-4 leukemia = system: MOLT-4 leukemia
HOP-92 NSCLC = system: HOP-92 NSCLC
TK-10 renal = system: TK-10 renal
786-0 renal = system: 786-0 renal
RPMI-8226 leukemia = system: RPMI-8226 leukemia
SN12C renal = system: SN12C renal
ACHN renal = system: ACHN renal
BT-549 breast = system: BT-549 breast
NCI-H460 lung = system: NCI-H460 lung
T-47D breast = system: T-47D breast
UO-31 renal = system: UO-31 renal
HT29 colon = system: HT29 colon
IGROV1 ovarian = system: IGROV1 ovarian
A498 renal = system: A498 renal
HCT-15 colon = system: HCT-15 colon
OVCAR-8 ovarian = system: OVCAR-8 ovarian
NCI-H23 lung = system: NCI-H23 lung
SF-295 CNS = system: SF-295 CNS
NCI-H522 lung = system: NCI-H522 lung
SK-MEL-28 melanoma = system: SK-MEL-28 melanoma
MDA-MB-435 = system: MDA-MB-435
MCF7 breast = system: MCF7 breast
SK-OV-3 ovarian = system: SK-OV-3 ovarian
HCC-2998 colon = system: HCC-2998 colon
PC-3 prostate = system: PC-3 prostate
U251 CNS = system: U251 CNS
SW-620 colon = system: SW-620 colon
K-562 leukemia = system: K-562 leukemia
OVCAR-3 ovarian = system: OVCAR-3 ovarian

CCC(CN(C)C)C(=O)c1ccco1 (configuration not stated)
TGI (OVCAR-5 ovarian): > 100 µM
TGI (HOP-62 NSCLC): > 100 µM
TGI (A549 NSCLC): > 100 µM
TGI (SNB-75 CNS): > 100 µM
TGI (SF-268 CNS): > 100 µM
TGI (CAKI-1 renal): > 100 µM
TGI (RXF 393 renal): > 100 µM
TGI (M14 melanoma): > 100 µM
TGI (UACC-62 melanoma): > 100 µM
TGI (SNB-19 CNS): > 100 µM
TGI (SR leukemia): > 100 µM
TGI (HS 578T breast): > 100 µM
TGI (OVCAR-4 ovarian): > 100 µM
TGI (SK-MEL-2 melanoma): > 100 µM
TGI (MALME-3M melanoma): > 100 µM
TGI (LOX IMVI melanoma): > 100 µM
TGI (KM12 colon): > 100 µM
TGI (DU-145 prostate): > 100 µM
TGI (EKVX NSCLC): > 100 µM
TGI (HCT-116 colon): > 100 µM
TGI (MDA-MB-231 breast): > 100 µM
TGI (UACC-257 melanoma): > 100 µM
TGI (NCI/ADR-RES ovarian): > 100 µM
TGI (MOLT-4 leukemia): 96.8 µM
TGI (HOP-92 NSCLC): > 100 µM
TGI (TK-10 renal): > 100 µM
TGI (786-0 renal): > 100 µM
TGI (RPMI-8226 leukemia): > 100 µM
TGI (SN12C renal): > 100 µM
TGI (ACHN renal): > 100 µM
TGI (BT-549 breast): > 100 µM
TGI (NCI-H460 lung): > 100 µM
TGI (T-47D breast): > 100 µM
TGI (UO-31 renal): > 100 µM
TGI (HT29 colon): > 100 µM
TGI (IGROV1 ovarian): > 100 µM
TGI (A498 renal): > 100 µM
TGI (HCT-15 colon): > 100 µM
TGI (OVCAR-8 ovarian): > 100 µM
TGI (NCI-H23 lung): > 100 µM
TGI (SF-295 CNS): > 100 µM
TGI (NCI-H522 lung): 35.6 µM
TGI (SK-MEL-28 melanoma): > 100 µM
TGI (MDA-MB-435): > 100 µM
TGI (MCF7 breast): > 100 µM
TGI (SK-OV-3 ovarian): > 100 µM
TGI (HCC-2998 colon): > 100 µM
TGI (PC-3 prostate): > 100 µM
TGI (U251 CNS): > 100 µM
TGI (SW-620 colon): > 100 µM
TGI (K-562 leukemia): > 100 µM
TGI (OVCAR-3 ovarian): > 100 µM
